Measurements reported in PMC8510013, “Active Flavonoids from Colubrina greggii var. greggii S. Watson against Clinical Isolates of Candida spp” (Molecules, 2021).
≈ marks a conversion by molar mass, not a printed value. Read-outs that look alike come from different tables or passages of the source.

How the values were obtained:
Candida albicans = experiment: Broth microdilution antifungal assay (CLSI M27-A2), clinical isolates; type: cell-based
Description: (§1) Clinical isolates were provided by the Microbiology Department of the Medical School, UANL: isolates 97 and 98 of C. albicans, isolates 83 and 84 of C. glabrata, isolates 95 and 96 of C. parapsilosis, isolates 105 and 166 of C. tropicalis, and isolates 137 and 168 of C. krusei.
(§2) Inoculates from the above-mentioned isolates were prepared and growing on Sabouraud agar. The extracts were tested using microdilution assay according to the protocol M27-A2 defined by the Clinical Laboratory Standards Institute. Two clinical isolates were used for each species of Candida, and each test was made in duplicate. Isolates 83 and 84 of C. glabrata are resistant strains to fluconazole. Serial two-fold dilutions ranging from 2 to 500 μg/mL were made for all extracts, fractions, and isolated compounds. The minimal inhibitory concentration (MIC) was defined as the lowest tested extract concentration that inhibits 100% of organism growth compared to the growth of the drug-free control.

[1] = Brine shrimp lethality bioassay; settings: Artemia salina, in vivo; 24 h counts, mean (n = 3) ± SD
Description: In order to evaluate the toxicity of the compounds with antifungal activity obtained during separation, a test of lethality to Artemia salina brine shrimp was made. Concentrations of 1, 10, 100, and 500 ppm of each active fraction and each compound were tested. […] LC50 values greater than 200 ppm were considered non-toxic.

[2] = In vitro cytotoxic assay on Vero cell line (MTT); type: cell-based; settings: African green monkey, Vero cells, mean (n = 3) ± SD
Description: The cytotoxicity assay was performed by the 3-(4,5-dimethylthiazol-2-yl) 2,5-diphenyltetrazolium bromide (MTT) assay as previously described. The Vero cell line was maintained in DMEM supplemented with 2% FBS, streptomycin, and penicillin at 1%. All cell cultures were incubated at 37 °C in a humidified atmosphere of 5% CO2. Cells were harvested, counted, and transferred into 96 well plates and incubated for 24 h prior to the addition of test compounds. Serial dilutions of test samples were prepared by dissolving compounds in DMSO followed by dilution with DMEM to yield the final DMSO concentration in the assay well as 1%. Stock solutions of fractions and compounds 1, 2, and 3 were prepared at […] and diluted further to yield concentrations ranging from 2000–15.6 μg/mL. The plates were incubated for 48 h. MTT (3-[4,5-dimethylthiazol-2-yl]-2,5-diphenyltetrazolium bromide) (5 mg) was dissolved in 1 mL of Phosphate Buffer Solution (PBS) and 10 μL of it was added to each of the 96 wells. The plates were incubated at 37 °C for 3 h. The solution in each well-containing media, unbound MTT and dead cells were removed by suction and 100 μL of DMSO was added to each well. The plates were then shaken and optical density was recorded using a microplate reader at 540 nm. Doxorubicin was used as positive control and DMSO as solvent control. The CC50 was determined as the concentration of extract required reducing cell viability by 50%, taking as 100%, the untreated cells. The experiments were performed in triplicate for each extract. In parallel, we performed the same experiment using untreated cells as a control.

C. glabrata = experiment: Broth microdilution antifungal assay (CLSI M27-A2), clinical isolates; type: cell-based, Candida glabrata
Description: as §1, §2

C. tropicalis [3] = experiment: as above; type: cell-based, Candida tropicalis
Description: as §1, §2

C. krusei [4] = experiment: as above; type: cell-based, Candida krusei
Description: as §1, §2

C. parapsilosis [5] = experiment: as above; type: cell-based, Candida parapsilosis
Description: as §1, §2

C. albicans = settings: cited from earlier work
Candida glabrata = settings: cited from earlier work
C. tropicalis [6] = system: C. tropicalis; parameters: method as in doi:10.1016/j.phytol.2015.02.006; settings: C. tropicalis ATCC 750; cited from earlier work
C. krusei [7] = settings: C. krusei ATCC 20298; cited from earlier work
C. parapsilosis [8] = settings: C. parapsilosis ATCC 20019; cited from earlier work
[9] = Candida albicans, Ca isolate 97, read-out: MIC
[10] = Nakaseomyces glabratus, C. glabrata, isolate not stated, read-out: MIC
[11] = Nakaseomyces glabratus, Cg isolate 83, fluconazole-resistant clinical isolate, read-out: MIC
[12] = Nakaseomyces glabratus, Cg isolate 84, fluconazole-resistant clinical isolate, read-out: MIC
[13] = Candida tropicalis, Ct isolate 105, read-out: MIC
[14] = Pichia kudriavzevii, Ck isolate 137, read-out: MIC
[15] = Pichia kudriavzevii, Ck isolate 168, read-out: MIC
[16] = Lodderomyces parapsilosis, Cp isolate 95, read-out: MIC
[17] = Lodderomyces parapsilosis, Cp isolate 96, read-out: MIC

Row | Compound | MIC (Candida albicans; Ca isolate 98) [µg/mL] | MIC (Candida albicans; [9]) [µg/mL] | LC50 at 24 h [1] [µg/mL] | CC50 at 48 h [2] [µg/mL] | MIC (C. glabrata; [10]) [µg/mL] | MIC (C. glabrata; [11]) [µg/mL] | MIC (C. glabrata; [12]) [µg/mL] | MIC (C. tropicalis [3]; [13]) [µg/mL] | MIC (C. tropicalis [3]; Ct isolate 166) [µg/mL] | MIC (C. krusei [4]; [14]) [µg/mL] | MIC (C. krusei [4]; [15]) [µg/mL] | MIC (C. parapsilosis [5]; [16]) [µg/mL] | MIC (C. parapsilosis [5]; [17]) [µg/mL] | also measured
1 | C[C@@H]1O[C@@H](Oc2c(-c3ccc(O)cc3)oc3cc(O)cc(O)c3c2=O)[C@H](O[C@@H]2OC[C@@H](O)[C@H](O)[C@H]2O)[C@H](O)[C@H]1O [Compound 3, kaempferol 3-O-α-L-rhamnopyranosyl-L-(2→1)-O-β-xylopyranoside] | >500 | > 500 | 254.8 ± 0.024 (≈ 451 µM) | > 2000 | 16 (≈ 28.3 µM) | 16 (≈ 28.3 µM) | 16 (≈ 28.3 µM) | > 500 | >500 | > 500 | > 500 | > 500 | > 500 | 
2 | Kaempferol-3-O-rutinoside [reference compound] |  |  |  |  |  |  |  |  |  |  |  |  |  | MIC (C. albicans; Candida albicans ATCC 14053 and ATCC10231): 500 µg/mL
3 | O=c1c(O)c(-c2ccc(O)cc2)oc2cc(O)cc(O)c12 [kaempferol, reference compound] |  |  |  |  |  |  |  |  |  |  |  |  |  | MIC (Candida glabrata; six clinical isolates of Candida glabrata including one resistant to fluconazole): 31.5 µg/mL (≈ 110 µM)
4 | OC(Cn1cncn1)(Cn1cncn1)c1ccc(F)cc1F [Fluconazol, reference compound] | 4 (≈ 13.1 µM) | 4 (≈ 13.1 µM) |  |  |  | 32 (≈ 104 µM) | 63 (≈ 206 µM) | 2 (≈ 6.53 µM) | 2 (≈ 6.53 µM) | 32 (≈ 104 µM) | 4 (≈ 13.1 µM) | 0.5 (≈ 1.63 µM) | 1 (≈ 3.27 µM) | 
5 | C[C@@H]1O[C@@H](Oc2c(-c3ccc(O)c(O)c3)oc3cc(O)cc(O)c3c2=O)[C@H](O)[C@H](O)[C@H]1O [Compound 1, quercetin 3-O-α-L-rhamnoside] | 500 (≈ 1120 µM) |  | > 500 | 1660 ± 81 (≈ 3700 µM) |  |  |  |  | >500 |  |  |  |  | MIC (C. albicans; C. albicans ATCC 18804): below 250 μg/mL; MIC (C. tropicalis [6]): below 250 μg/mL; MIC (Candida albicans; Ca isolate 97): 500 µg/mL (≈ 1120 µM); MIC (Candida albicans; Candida albicans): 500 µg/mL (≈ 1120 µM); MIC (C. krusei [7]): below 250 μg/mL; MIC (C. parapsilosis [8]): below 250 μg/mL; MIC (C. glabrata; Cg isolate 83, fluconazole-resistant clinical isolate): 16 µg/mL (≈ 35.7 µM); MIC (C. glabrata; Cg isolate 84, fluconazole-resistant clinical isolate): 16 µg/mL (≈ 35.7 µM); MIC (C. glabrata; Nakaseomyces glabratus): 16 µg/mL (≈ 35.7 µM); MIC (Candida glabrata; isolates 510, 493, 482, 531 of C. glabrata): 7.8 µg/mL (≈ 17.4 µM); MIC (C. tropicalis [3]; Candida tropicalis): > 500 µg/mL; MIC (C. krusei [4]; Ck isolate 137): 500 µg/mL (≈ 1120 µM); MIC (C. krusei [4]; Ck isolate 168): 500 µg/mL (≈ 1120 µM); MIC (C. krusei [4]; Pichia kudriavzevii): 500 µg/mL (≈ 1120 µM); MIC (C. parapsilosis [5]; Cp isolate 95): 125 µg/mL (≈ 279 µM); MIC (C. parapsilosis [5]; Cp isolate 96): 125 µg/mL (≈ 279 µM); MIC (C. parapsilosis [5]; Lodderomyces parapsilosis): 125 µg/mL (≈ 279 µM)
6 | C[C@@H]1O[C@@H](Oc2c(-c3ccc(O)c(O)c3)oc3cc(O)cc(O)c3c2=O)[C@H](O[C@@H]2OC[C@@H](O)[C@H](O)[C@H]2O)[C@H](O)[C@H]1O [Compound 2, quercetin 3-O-α-L-rhamnopyranosyl-L-(2→1)-O-β-xylopyranoside] | >500 | > 500 | 322.8 ± 0.009 (≈ 556 µM) | > 2000 | 63 (≈ 109 µM) | 63 (≈ 109 µM) | 63 (≈ 109 µM) | > 500 | >500 | > 500 | > 500 | > 500 | > 500 | 
